Where two headings read alike, the source gives them in different places.
Key:
[1] = target: T1, Src (p60^c-src) (Homo sapiens, UniProt P12931); experiment: SRC-Inhibitor-Assay, time-resolved fluorescence kinase assay (Src); assay type: biochemical; conditions: ATP 5 μM, enzyme 2.5 U/ml, pre-incubation 15 min at 15° C.
T1 construct: purchased Upstate (UBI)
Experimental: (§1) The activity of the compounds according to this invention as inhibitors for the src-family tyrosine kinases was shown by using the following assay.
(§2) SRC-Inhibitor-Assay Parameters:
(§3) Assay buffer: 4 mM MgCl2 • 2 mM TCEP • 50 mM HEPES • 0,1% Tween 20 • pH 7.3
(§4) Material: Eu-labelled phosphotyrosine antibody:—for Lck Cisbio Mab PT66-K, for Src EG&G Wallac PT66 Eu-W1024 (all commercially available). Peptides: Ro: NH2-A-E-E-E-I-Y-G-E-F-E-A-K-K-K-K-CONH2, and Ja133-Ro: Ja133-G-Aminocaprylic acid-A-E-E-E-I-Y-G-E-F-E-A-K-K-K-K-CONH2, wherein Ja133 is LightCycler-Red 640-N-hydroxy succinimide ester; whereby both peptides were synthesized by an optimized solid phase peptide synthesis protocol (Merrifield, Fed. Proc. Fed. Amer. Soc. Exp. Biol. 21 (1962) 412) on a Zinsser SMP350 peptide synthesizer. Shortly, the peptide was assembled on 160 mg (22.8 μmol scale) of a Rink-Linker modified polystyrene solid phase by repeatedly conjugating an twenty fold excess of amino acids each protected by temporary piperidine labile Fmoc- and permanent acid labile tert-Bu-, BOC— and Otert-Bu-groups depending on the side chain function. The substrate sequence AEEEIYGEFEAKKKK was N-terminal additionally mounted with the spacer amino acids Aminocaprylic acid and Glycin. After cleavage of the N-terminal temporary protecting group the still attached and protected peptide was labeled with a 1.5 fold amount of LightCycler-Red 640-N-hydroxy succinimide ester (purchased by Roche Diagnostics GmbH) and triethylamine. After 3 hrs. the resin was washed with Dimethylformamide and Isopropanol until the eluates of the blue resin got colourless. […] The substrate was finally isolated by a preparative reverse phase HPLC purification. The purification yielded 12.2 mg RP-HPLC single peak pure blue material (lyophilisate). The identity was proven by MALDI mass spectroscopy [2720.0]. Enzymes: Upstate Lck (p56^lck, active), Upstate Src (p60^c-src, partially purified) were purchased from UBI. Time-resolved Fluorescence Assay: Reader: Perkin Elmer, Wallac Viktor 1420-040 multilabel counter; Liquid handling system: Beckman Coulter, Biomek 2000. ATP, Tween 20, HEPES were purchased from Roche Molecular Biochemicals, MgCl2 and MnCl2 were purchased from Merck Eurolab, TCEP was purchased from Pierce, 384 Well low volume fluorescence plates was purchased from Falcon. Assay Description:
(§5) At first the enzyme is pre-incubated for 15 min. at 15° C. in aqueous solution with corresponding amounts of inhibitors according to this invention. Then the phosphorylation reaction is started by adding a reaction mixture, containing ATP, Peptide and PT66, and subsequent shaking. The proceeding of this reaction is immediately monitored using time resolved fluorescence spectroscopy in a suitable well plate reader.
(§6) The IC50-values can be obtained from the reaction rates by using a non-linear curve fit (Excelfit).

[2] = target: T2, Lck (p56^lck) (Homo sapiens, UniProt P06239); experiment: SRC-Inhibitor-Assay, time-resolved fluorescence kinase assay (Lck); assay type: biochemical; conditions: ATP 5 μM, enzyme 2.5 U/ml, pre-incubation 15 min at 15° C.
T2 construct: purchased Upstate (UBI)
T2 sequence (P06239 whole entry, species assumed): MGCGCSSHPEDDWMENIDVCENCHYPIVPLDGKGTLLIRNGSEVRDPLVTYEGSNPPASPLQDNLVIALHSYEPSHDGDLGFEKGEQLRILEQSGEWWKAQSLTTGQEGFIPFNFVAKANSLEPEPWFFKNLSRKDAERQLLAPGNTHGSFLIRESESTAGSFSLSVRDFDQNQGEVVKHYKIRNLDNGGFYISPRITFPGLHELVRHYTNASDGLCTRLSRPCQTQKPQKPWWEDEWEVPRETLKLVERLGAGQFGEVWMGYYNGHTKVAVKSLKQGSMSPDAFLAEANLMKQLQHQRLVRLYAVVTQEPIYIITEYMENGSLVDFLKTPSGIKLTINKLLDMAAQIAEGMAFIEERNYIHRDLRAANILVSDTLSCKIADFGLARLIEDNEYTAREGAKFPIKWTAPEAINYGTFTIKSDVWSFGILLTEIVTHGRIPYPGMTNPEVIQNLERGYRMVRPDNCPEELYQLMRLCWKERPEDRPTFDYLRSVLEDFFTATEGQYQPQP
Experimental: as §1, §2, §3, §4, §5, §6

[3] = Pharmacokinetic study in mice, plasma levels after single p.o. dose; assay type: in vivo; conditions: male NMRI mice, p.o. single dose 30 mg/kg as micro-suspension, dose-normalised
Experimental: A preferred pharmaceutical preparation was obtained by using the following procedure: • 1. Weigh 4.0 g glass beads in custom made tube GL 25, 4 cm (the beads fill half of the tube). • 2. Add 50 mg compound, disperse with spatulum and vortex. • 3. Add 2 ml gelatin solution (weight beads: gelatin solution=2:1) and vortex. • 4. Cap and wrap in aluminium foil for light protection. • 5. Prepare a counter balance for the mill. • 6. Mill for 4 hours, 20/s in a Retsch mill (for some substances up to 24 hours at 30/s). • 7. Extract suspension from beads with two layers of filter (100 μm) on a filter holder, coupled to a recipient vial by centrifugation at 400 g for 2 min. • 8. Move extract to measuring cylinder. • 9. Repeat washing with small volumes (here 1 ml steps) until final volume is reached or extract is clear. • 10. Fill up to final volume with gelatin and homogenise.
The above described preparation yields micro-suspensions of the compounds of formula I with particle sizes between 1 and 10 μm. The suspensions are suitable for oral applications and were used in the in vivo pharmacokinetic testings described below.
To male NMRI mice of 29–35 g body weight the compounds according to this invention were given p.o. as micro-suspensions (7.5% modified gelatine and 0.22% NaCl) in doses of 30 mg/kg (Drug concentration: 3 mg/mL. Administered volume: 10 mL/kg) and as single dose administration. Study Protocol:
Animals were fasted overnight up to 4 hrs. after administration of the compound. For each single p.o. dose the mice were allocated to 3 groups with 4 animals each. Blood samples are taken from group 1 at 0.5, 3 and 24 hours, from group 2 at 1 and 6 hours, and from group 3 at 2 and 8 hours.
Blood samples of about 200 μl were obtained by retro-orbital puncture. Plasma samples were obtained from heparinized/EDTA blood by centrifugation at room temperature, and stored frozen at −20° C. until analysis.
Plasma was deproteinated and subsequently analysed for plasma levels of the compound by a compound specific HPLC-MS method. WinNonlin™ was used to calculate the pharmacokinetic parameters.

T1 sequence (P12931 whole entry): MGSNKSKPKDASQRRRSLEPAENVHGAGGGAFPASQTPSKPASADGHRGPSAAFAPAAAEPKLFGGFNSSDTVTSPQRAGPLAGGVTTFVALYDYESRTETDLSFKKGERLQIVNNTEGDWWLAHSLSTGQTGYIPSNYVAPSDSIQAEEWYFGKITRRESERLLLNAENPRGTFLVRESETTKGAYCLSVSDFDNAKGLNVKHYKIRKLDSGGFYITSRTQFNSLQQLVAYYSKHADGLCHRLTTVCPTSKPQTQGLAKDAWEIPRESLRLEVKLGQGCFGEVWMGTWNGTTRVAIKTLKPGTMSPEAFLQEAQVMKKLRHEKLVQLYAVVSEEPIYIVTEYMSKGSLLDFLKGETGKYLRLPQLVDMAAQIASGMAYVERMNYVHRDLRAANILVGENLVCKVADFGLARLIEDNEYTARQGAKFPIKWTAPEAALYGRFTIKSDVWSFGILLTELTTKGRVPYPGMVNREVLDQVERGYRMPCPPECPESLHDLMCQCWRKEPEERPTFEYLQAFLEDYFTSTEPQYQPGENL

SMILES	IC50 ([1]; read-out: IC 50 (src)) [nM]	IC50 ([2]; read-out: IC 50 (lck)) [nM]	AUC = area under the curve from T = 0 to T = 24 hrs [3]	melting point [°C]	IC50 ([1]; IC 50 (src)) [nM]	IC50 ([2]; IC 50 (lck)) [nM]
CN1C(=O)N(c2ccccc2Br)Cc2cnc(Nc3ccc4c(c3)OCC(CO)O4)nc21 (stereo not drawn) [Example 1, 3-(2-bromo-phenyl)-7-(2-hydroxymethyl-2,3-dihydro-benzo[1,4]dioxin-6-ylamino)-1-methyl-3,4-dihydro-1H-pyrimido[4,5-d]pyrimidin-2-one]	7.5	6.3	379 (h * ng/ml))/(mg/kg)	156 to 158	–	–
CN1C(=O)N(c2ccccc2Br)Cc2cnc(Nc3ccc4c(c3)OC3(CCNCC3)O4)nc21 [Example 7, 3-(2-bromo-phenyl)-3,4-dihydro-7-(spiro[1,3-benzodioxolo-2,4′-piperidine]-5-yl)amino-1-methyl-pyrimido[4,5-d]pyrimidin-2(1H)-one]	–	–	813 (h * ng/ml))/(mg/kg)	–	2	2.4
CN1C(=O)CSc2cc(Nc3ncc4c(n3)N(C)C(=O)N(c3c(F)cccc3Br)C4)ccc21 [Example 13-12, 3-(2-bromo-6-fluoro-phenyl)-1-methyl-7-(4-methyl-3-oxo-3,4-dihydro-2H-benzo[1,4]thiazin-7-ylamino)-3,4-dihydro-1H-pyrimido[4,5-d]pyrimidin-2-one]	4.2	14	592 (h * ng/ml))/(mg/kg)	145 to 149	–	–
CN1C(=O)N(c2ccccc2Br)Cc2cnc(Nc3ccc4c(c3)OCC(CN3CCCC3)O4)nc21 (stereo not drawn) [Example 13-21, 3-(2-bromo-phenyl)-1-methyl-7-(2-pyrrolidin-1-ylmethyl-2,3-dihydro-benzo[1,4]dioxin-6-ylamino)-3,4-dihydro-1H-pyrimido[4,5-d]pyrimidin-2-one]	–	–	120 (h * ng/ml))/(mg/kg)	201 to 203	–	–
CN1CCS(=O)(=O)c2cc(Nc3ncc4c(n3)N(C)C(=O)N(c3ccccc3Br)C4)ccc21 [Example 13-26, 3-(2-bromo-phenyl)-1-methyl-7-(4-methyl-1,1-dioxo-1,2,3,4-tetrahydro-1lambda*6*-benzo[1,4]thiazin-7-ylamino)-3,4-dihydro-1H-pyrimido[4,5-d]pyrimidin-2-one]	–	–	–	250 to 251	–	–
CN1C(=O)N(c2c(F)cccc2Br)Cc2cnc(Nc3ccc4c(c3)OC3(CCNCC3)O4)nc21 [Example 13-46, 3-(2-bromo-6-fluoro-phenyl)-3,4-dihydro-7-(spiro[1,3-benzodioxolo-2,4′-piperidine]-5-yl)amino-1-methyl-pyrimido[4,5-d]pyrimidin-2(1H)-one]	–	–	234 (h * ng/ml))/(mg/kg)	146 to 153	2.3	2.6

Reference: patent US7091345B2, “Amino-substituted dihydropyrimido[4,5-D]pyrimidinone derivatives” (Hoffmann-La Roche Inc., priority 2002, dated 2006)
